Measurements from article PMC8899577, “Targeting the anti-apoptotic Bcl-2 family proteins: machine learning virtual screening and biological evaluation of new small molecules” (Theranostics, 2022).

How the values were obtained:
[1] = system: U937 cells; assay: Western blot of PARP1 cleavage, U937; format: cell-based, Human; details: 20 µM for 24 h
Procedure: (§1) Western blot analyses of total protein extracts were performed as previously described. Immunodetection was performed using antibodies directed to poly (ADP-ribose) polymerase (PARP; BD Biosciences San Diego, CA, USA), LC3B (Cell Signaling Technology, Danvers, MA), HSP72/73 (Calbiochem, EMD Biosciences, La Jolla, CA), Bcl-2 (SC-509, Santa Cruz Biotechnology Inc, Dallas, TX, USA), Bcl-xL (SC-271121, Santa Cruz Biotechnology Inc), Mcl-1 (SC-12756, Santa Cruz Biotechnology Inc) α-tubulin (Santa Cruz Biotechnology Inc) actin (Sigma-Aldrich, St. Louis, Missouri, USA). Anti-rabbit or anti-mouse immunoglobulin G-horseradish peroxidase-conjugated antibodies (Amersham Biosciences, Freiburg, Germany) were used as secondary antibody. Images were acquired by Image Lab Software (Bio-Rad, Hercules, CA, USA), using a ChemiDoc System instrument (Bio-Rad). […]
(§2) Figure 5 Analysis of apoptosis induction by IS20 and IS21 in leukemia, melanoma and NSCLC cells. […] (G) Flow cytometric quantification of cells in the subG1 peak of cell cycle distribution by propidium iodide staining in HL60 cell line treated with IS20 or IS21 (20 μM for 24 h) and in M14, H1299 and MDA-MB-231 cell lines treated with IS20 or IS21 (20 μM for 72 h). Data are reported as mean ± SD of three independent experiments. p-values were calculated between control (Ctrl) and treated cells, * p < 0.05. […]

[2] = system: HCT116 cells; assay: Western blot of PARP1 cleavage, HCT116; format: cell-based, Human; details: 72 h
Procedure: as §1, §2

[3] = system: U937 cells; assay: Western blot of LC3B-I/LC3B-II (autophagy), U937; format: cell-based, Human; details: 20 µM for 24 h
[4] = system: H1299 cells; assay: Clonogenic assay, H1299; format: cell-based, Human; details: 20 µM for 72 h, respect to controls
Procedure: The effect of compounds on cell viability was performed by measuring 3-[4,5-dimethylthiazol-2-yl]-2,5-diphenyltetrazolium bromide inner salt (MTT, Sigma-Aldrich) dye absorbance (solid tumor cells) or by quantization of ATP present in metabolically active cells using CellTiter-Glo® Luminescent (Promega, Fitchburg, Wisconsin, USA) (hematologic cells) following manifacturer's protocol. To evaluate the cell colony-forming ability, cell suspension from different samples was seeded into 60-mm Petri dishes. After 10 days, colonies were stained with 2% methylene blue in 95% ethanol and counted (1 colony > 50 cells). The surviving fractions were calculated as the ratio of absolute survival of the treated sample/survival of DMSO-treated control sample.
Figure 4 Analysis of the effect of IS20 and IS21 on cell viability, clonogenic ability and tumor sphere formation in cancer cells. […] (B) Representative images and quantification of clonogenic ability evaluated in M14 and H1299 cells treated with IS20 or IS21 (20 μM for 72 h). […] (C) Quantification of tumor sphere formation of M14 and H1299 cells treated with IS20 or IS21 (20 μM for 72 h). […] (A-C) Data are reported as mean ± SD of three independent experiments. p-values were calculated between control (Ctrl) and treated cells, ** p < 0.001 and *** p < 0.0001.

[5] = system: HL60 cells; assay: Western blot of LC3B-I/LC3B-II (autophagy), HL60; format: cell-based, Human; details: 20 µM for 24 h
[6] = system: H1299 cells; assay: Western blot of PARP1 cleavage, H1299; format: cell-based, Human; details: 72 h
Procedure: as §1, §2

[7] = system: MDA-MB-231 cells; assay: Flow cytometry subG1 peak (PI staining), MDA-MB-231; format: cell-based, Human; details: 20 µM for 72 h
Procedure: Flow cytometric analysis (BD Accuri™ C6, BD Biosciences) was performed to evaluate cell cycle distribution by propidium iodide (PI) staining, and cell viability by using the PI dye exclusion assay as previously reported.
Figure 5 Analysis of apoptosis induction by IS20 and IS21 in leukemia, melanoma and NSCLC cells. […] (A-F) Reported images are representative of two independent experiments with similar results. HSP72/73 or α-Tubulin are shown as loading and transferring control. (G) Flow cytometric quantification of cells in the subG1 peak of cell cycle distribution by propidium iodide staining in HL60 cell line treated with IS20 or IS21 (20 μM for 24 h) and in M14, H1299 and MDA-MB-231 cell lines treated with IS20 or IS21 (20 μM for 72 h). Data are reported as mean ± SD of three independent experiments. p-values were calculated between control (Ctrl) and treated cells, * p < 0.05. (H) Flow cytometric quantification of cells in the subG1 peak by propidium iodide staining in M14 and H1299 cell lines treated with IS20 or IS21 (20 μM, 72 h) in presence or absence of the pan caspase inhibitor z-VAD (50 μM). p-values were calculated between treated control (Ctrl) cells, # p < 0.01, ## p < 0.001 or between cells treated with IS20 or IS21 alone or in combination with z-VAD, * p < 0.05, ** p < 0.005. (G-H) Data are reported as mean of two (H) or three (G) experiments ± SD.

[8] = target: Bcl-2 (Homo sapiens, UniProt P10415); assay: SPR binding to immobilized Bcl-2; details: for Kd: SPR, 25 °C, 2-site fit, highest affinity site
Procedure: FastStep experiments were performed with a SensiQ Pioneer apparatus. Bcl-2 immobilization on COOH5 sensorchips was carried out essentially as previously reported, [40]. All the experiments were carried out at 25 °C in degassed HEPES 20 mM, pH 7.4, NaCl 150 mM, 0.005% surfactant P20 + 2% DMSO (HBSP2%D). […] Each sensorgram is the average of at least three experiments. The decrease in Response Units (RU) after 165 s indicates analyte dissociation from the immobilized Bcl-2 upon HSBP2%D buffer injection. Control SPR experiments were carried out measuring sensorgrams on Bcl-xL and Mcl-1 (ligands) immobilized on COOH5 sensorchips as previously reported at 25 °C in degassed HBSP2%D buffer. […] Each sensorgram is the average of at least three experiments. The decrease in RU after 180 s indicates analyte dissociation from the immobilized ligands upon HSBP2%D buffer injection. Kinetic evaluation of the sensorgrams was carried out using the Qdat 4.0 program; best fittings were obtained with 2 sites and indicated in red (reported KD values refer to dissociation constants of the highest affinity site).
Figure 2 SPR analysis of the interaction between putative inhibitors of Bcl-2 anti-apoptotic members and Bcl-2 protein. Bcl-2 was immobilized via amine coupling onto a COOH5 sensorchip; Bcl-2 family inhibitors (analytes) were injected at a flow rate = 100 μL/min, at the following concentrations. 0-30 s: 0.625 μM; 31-60 s: 1.25 μM; 61-90 s: 2.5 μM; 91-120 s: 5 μM; 121-150 s: 10 μM; 151-165 s: 20 μM. The increase in Response Units (RU) relative to baseline indicates complex formation between the immobilized Bcl-2 ligand and the analytes upon Bcl-2 family inhibitors injection. The decrease in RU after 165 s indicates analyte dissociation from the immobilized Bcl-2 upon buffer injection. Full fittings with 2 sites are indicated in red. The fitted KD values are the following.

Bcl-2, sequence (P10415 whole entry): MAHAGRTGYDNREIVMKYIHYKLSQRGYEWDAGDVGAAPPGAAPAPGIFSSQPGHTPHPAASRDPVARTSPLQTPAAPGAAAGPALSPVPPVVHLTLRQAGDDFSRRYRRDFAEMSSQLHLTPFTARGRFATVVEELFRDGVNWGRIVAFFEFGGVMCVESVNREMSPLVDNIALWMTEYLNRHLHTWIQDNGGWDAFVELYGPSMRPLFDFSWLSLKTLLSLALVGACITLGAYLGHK

Row | Structure (SMILES) | PARP1 cleavage, U937 [1] | PARP1 cleavage, HCT116 [2] | ratio of LC3B-II on LC3B-I, U937 [3] | decrease of cell colony formation, H1299 [4] | ratio of LC3B-II on LC3B-I, HL60 [5] | PARP1 cleavage, H1299 [6] | subG1 peak of cell cycle distribution, MDA-MB-231 [7] | Kd [8] [nM] | selectivity for Bcl-2 than for Mcl-1 ([8]; selectivity index from KD) [times] | selectivity for Bcl-2 than for Bcl-xL ([8]; selectivity index from KD)
1 | CCCCOc1ccc(C2/C(=C(\O)c3ccc4c(c3)CC(C)O4)C(=O)C(=O)N2c2nnc(SCc3ccc(Cl)cc3)s2)cc1OCC (stereo not shown) [IS20] | cleavage of PARP1 | not evident | Increased ratio | 80-90% | Increased ratio | cleavage of PARP1 | not evident | 320 ± 90 | 12 | –
2 | CCCCCOc1ccc(C2/C(=C(\O)c3ccc4c(c3)CC(C)O4)C(=O)C(=O)N2c2nnc(SCc3ccc(Cl)cc3)s2)cc1OCC (stereo not shown) [IS21] | cleavage of PARP1 | not evident | Increased ratio | 80-90% | Increased ratio | cleavage of PARP1 | not evident | 190 ± 70 | ~6 | about 2.7 times
